Test results from paper PMC9330389, “Bambus[4,6]urils as Dual Scaffolds for Multivalent Iminosugar Presentation and Ion Transport: Access to Unprecedented Glycosidase-Directed Anion Caging Agents” (Molecules, 2022).

Biological target: T1, Jack Bean α-mannosidase (Canavalia ensiformis, UniProt C0HJB3)
T1 construct: purchased Sigma Aldrich, St. Louis, MO, USA
T1 sequence (C0HJB3 1-981): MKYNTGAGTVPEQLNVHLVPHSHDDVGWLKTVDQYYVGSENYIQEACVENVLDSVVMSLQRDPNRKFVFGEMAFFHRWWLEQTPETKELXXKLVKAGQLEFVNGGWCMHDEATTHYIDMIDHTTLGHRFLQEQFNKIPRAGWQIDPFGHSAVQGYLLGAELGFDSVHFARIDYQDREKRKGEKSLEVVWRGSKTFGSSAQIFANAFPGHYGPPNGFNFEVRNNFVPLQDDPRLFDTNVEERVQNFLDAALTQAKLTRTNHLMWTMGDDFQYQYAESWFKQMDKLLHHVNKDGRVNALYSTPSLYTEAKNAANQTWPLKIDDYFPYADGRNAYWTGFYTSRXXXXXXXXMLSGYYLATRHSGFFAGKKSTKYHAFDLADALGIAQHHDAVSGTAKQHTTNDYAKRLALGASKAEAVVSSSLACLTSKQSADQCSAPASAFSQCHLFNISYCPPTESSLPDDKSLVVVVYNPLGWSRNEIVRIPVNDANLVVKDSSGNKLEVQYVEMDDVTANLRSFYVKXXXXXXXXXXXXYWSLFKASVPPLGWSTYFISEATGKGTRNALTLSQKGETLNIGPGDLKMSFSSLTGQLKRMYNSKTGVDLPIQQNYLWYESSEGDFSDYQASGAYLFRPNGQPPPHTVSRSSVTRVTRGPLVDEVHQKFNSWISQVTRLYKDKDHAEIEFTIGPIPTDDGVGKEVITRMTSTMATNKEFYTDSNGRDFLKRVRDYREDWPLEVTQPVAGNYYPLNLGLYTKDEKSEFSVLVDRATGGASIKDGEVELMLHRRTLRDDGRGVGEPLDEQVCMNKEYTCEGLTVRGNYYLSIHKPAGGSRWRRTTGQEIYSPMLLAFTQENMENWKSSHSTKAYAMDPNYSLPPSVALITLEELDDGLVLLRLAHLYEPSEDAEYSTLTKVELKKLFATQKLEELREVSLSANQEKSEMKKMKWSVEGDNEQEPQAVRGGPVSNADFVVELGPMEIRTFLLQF
Experiment: Inhibition assays on Jack-Bean α-mannosidase (p-nitrophenyl-α-D-mannopyranoside hydrolysis, Dixon and Lineweaver–Burk)
Type: biochemical
Conditions: for Ki: 0.2 M acetate buffer pH 5, 25-27 °C, for mixed inhibitors the first value of the cell (Ki); for rp/n (relative potency per inhitope): n = number of inhitope units; for Rp (relative potency): rp = Ki (monovalent reference)/Ki (neoglycocluster)
Description: p-nitrophenyl-α-D-mannopyranoside and α-mannosidase (EC 3.2.1.24, from Jack Bean) were purchased from Sigma Aldrich, St. Louis, MO, USA. Inhibition constants were determined spectrophotometrically by measuring the residual hydrolytic activities of the α-mannosidase against p-nitrophenyl-α-D-mannopyranoside in the presence and absence of an inhibitor. Each well was filled with a total volume of 100 µL, containing 0.2 M acetate buffer pH 5, inhibitor, substrate and enzyme. All kinetics were performed between 25 °C and 27 °C and started by enzyme addition. After 30–50 min of incubation, the reaction was quenched by addition of 100 µL of 1M Na2CO3. The absorbance of the resulting solution was determined at 405 nm. Ki values were determined in triplicate, using the Dixon and Lineweaver–Burk graphical methods within Microsoft Excel. Stock solutions of inhibitors were prepared with DMSO/buffer for final well DMSO content under 5%. The stability of the enzyme in the presence of the same concentrations of DMSO was controlled and enzyme activity was unaffected.

Compound	Inhibition Mode	Ki	rp/n (relative potency per inhitope)	Rp (relative potency)	Ki' (mixed inhibition, second value of the cell (Ki' in supplement))
CCCC[N+](CCCC)(CCCC)CCCC.O=C1N(Cc2cn(CCCCCCCCCN3C[C@H](O)[C@@H](O)[C@H](O)[C@H]3CO)nn2)C2C(N1Cc1cn(CCCCCCCCCN3C[C@H](O)[C@@H](O)[C@H](O)[C@H]3CO)nn1)N1CN3C(=O)N(CN4C(=O)N(CN5C(=O)N(CN6C(=O)N(CN7C(=O)N(CN2C1=O)C1C7N(Cc2cn(CCCCCCCCCN7C[C@H](O)[C@@H](O)[C@H](O)[C@H]7CO)nn2)C(=O)N1Cc1cn(CCCCCCCCCN2C[C@H](O)[C@@H](O)[C@H](O)[C@H]2CO)nn1)C1C6N(Cc2cn(CCCCCCCCCN6C[C@H](O)[C@@H](O)[C@H](O)[C@H]6CO)nn2)C(=O)N1Cc1cn(CCCCCCCCCN2C[C@H](O)[C@@H](O)[C@H](O)[C@H]2CO)nn1)C1C5N(Cc2cn(CCCCCCCCCN5C[C@H](O)[C@@H](O)[C@H](O)[C@H]5CO)nn2)C(=O)N1Cc1cn(CCCCCCCCCN2C[C@H](O)[C@@H](O)[C@H](O)[C@H]2CO)nn1)C1C4N(Cc2cn(CCCCCCCCCN4C[C@H](O)[C@@H](O)[C@H](O)[C@H]4CO)nn2)C(=O)N1Cc1cn(CCCCCCCCCN2C[C@H](O)[C@@H](O)[C@H](O)[C@H]2CO)nn1)C1C3N(Cc2cn(CCCCCCCCCN3C[C@H](O)[C@@H](O)[C@H](O)[C@H]3CO)nn2)C(=O)N1Cc1cn(CCCCCCCCCN2C[C@H](O)[C@@H](O)[C@H](O)[C@H]2CO)nn1.[Br-] (some centres unmarked) [Compound 10, Br^-@(DNJ-C9)12BU[6].TBA^+]	competitive	0.488 µM	32	385	
O=C1N(Cc2cn(CCCCCCN3C[C@H](O)[C@@H](O)[C@H](O)[C@H]3CO)nn2)[C@H]2[C@@H](N1Cc1cn(CCCCCCN3C[C@H](O)[C@@H](O)[C@H](O)[C@H]3CO)nn1)N1CN3C(=O)N(CN4C(=O)N(CN5C(=O)N(CN2C1=O)[C@@H]1[C@H]5N(Cc2cn(CCCCCCN5C[C@H](O)[C@@H](O)[C@H](O)[C@H]5CO)nn2)C(=O)N1Cc1cn(CCCCCCN2C[C@H](O)[C@@H](O)[C@H](O)[C@H]2CO)nn1)[C@H]1[C@@H]4N(Cc2cn(CCCCCCN4C[C@H](O)[C@@H](O)[C@H](O)[C@H]4CO)nn2)C(=O)N1Cc1cn(CCCCCCN2C[C@H](O)[C@@H](O)[C@H](O)[C@H]2CO)nn1)[C@@H]1[C@H]3N(Cc2cn(CCCCCCN3C[C@H](O)[C@@H](O)[C@H](O)[C@H]3CO)nn2)C(=O)N1Cc1cn(CCCCCCN2C[C@H](O)[C@@H](O)[C@H](O)[C@H]2CO)nn1 [Compound 3, (DNJ-C6)8BU[4]]	competitive	9.7 µM	4	33	
O=C1N(Cc2cn(CCCCCCCCCN3C[C@H](O)[C@@H](O)[C@H](O)[C@H]3CO)nn2)C2C(N1Cc1cn(CCCCCCCCCN3C[C@H](O)[C@@H](O)[C@H](O)[C@H]3CO)nn1)N1CN3C(=O)N(CN4C(=O)N(CN5C(=O)N(CN6C(=O)N(CN7C(=O)N(CN2C1=O)C1C7N(Cc2cn(CCCCCCCCCN7C[C@H](O)[C@@H](O)[C@H](O)[C@H]7CO)nn2)C(=O)N1Cc1cn(CCCCCCCCCN2C[C@H](O)[C@@H](O)[C@H](O)[C@H]2CO)nn1)C1C6N(Cc2cn(CCCCCCCCCN6C[C@H](O)[C@@H](O)[C@H](O)[C@H]6CO)nn2)C(=O)N1Cc1cn(CCCCCCCCCN2C[C@H](O)[C@@H](O)[C@H](O)[C@H]2CO)nn1)C1C5N(Cc2cn(CCCCCCCCCN5C[C@H](O)[C@@H](O)[C@H](O)[C@H]5CO)nn2)C(=O)N1Cc1cn(CCCCCCCCCN2C[C@H](O)[C@@H](O)[C@H](O)[C@H]2CO)nn1)C1C4N(Cc2cn(CCCCCCCCCN4C[C@H](O)[C@@H](O)[C@H](O)[C@H]4CO)nn2)C(=O)N1Cc1cn(CCCCCCCCCN2C[C@H](O)[C@@H](O)[C@H](O)[C@H]2CO)nn1)C1C3N(Cc2cn(CCCCCCCCCN3C[C@H](O)[C@@H](O)[C@H](O)[C@H]3CO)nn2)C(=O)N1Cc1cn(CCCCCCCCCN2C[C@H](O)[C@@H](O)[C@H](O)[C@H]2CO)nn1 (some centres unmarked) [Compound 7, (DNJ-C9)12BU[6]]	competitive	1.06 µM	15	177	
O=C1N(Cc2cn(CCCCCCCCCN3C[C@H](O)[C@@H](O)[C@H](O)[C@H]3CO)nn2)C2C(N1Cc1cn(CCCCCCCCCN3C[C@H](O)[C@@H](O)[C@H](O)[C@H]3CO)nn1)N1CN3C(=O)N(CN4C(=O)N(CN5C(=O)N(CN2C1=O)C1C5N(Cc2cn(CCCCCCCCCN5C[C@H](O)[C@@H](O)[C@H](O)[C@H]5CO)nn2)C(=O)N1Cc1cn(CCCCCCCCCN2C[C@H](O)[C@@H](O)[C@H](O)[C@H]2CO)nn1)C1C4N(Cc2cn(CCCCCCCCCN4C[C@H](O)[C@@H](O)[C@H](O)[C@H]4CO)nn2)C(=O)N1Cc1cn(CCCCCCCCCN2C[C@H](O)[C@@H](O)[C@H](O)[C@H]2CO)nn1)C1C3N(Cc2cn(CCCCCCCCCN3C[C@H](O)[C@@H](O)[C@H](O)[C@H]3CO)nn2)C(=O)N1Cc1cn(CCCCCCCCCN2C[C@H](O)[C@@H](O)[C@H](O)[C@H]2CO)nn1 (some centres unmarked) [Compound 4, (DNJ-C9)8BU[4]]	competitive	0.71 µM	33	265	
CCCC[N+](CCCC)(CCCC)CCCC.O=C1N(Cc2cn(CCCCCCN3C[C@H](O)[C@@H](O)[C@H](O)[C@H]3CO)nn2)C2C(N1Cc1cn(CCCCCCN3C[C@H](O)[C@@H](O)[C@H](O)[C@H]3CO)nn1)N1CN3C(=O)N(CN4C(=O)N(CN5C(=O)N(CN6C(=O)N(CN7C(=O)N(CN2C1=O)C1C7N(Cc2cn(CCCCCCN7C[C@H](O)[C@@H](O)[C@H](O)[C@H]7CO)nn2)C(=O)N1Cc1cn(CCCCCCN2C[C@H](O)[C@@H](O)[C@H](O)[C@H]2CO)nn1)C1C6N(Cc2cn(CCCCCCN6C[C@H](O)[C@@H](O)[C@H](O)[C@H]6CO)nn2)C(=O)N1Cc1cn(CCCCCCN2C[C@H](O)[C@@H](O)[C@H](O)[C@H]2CO)nn1)C1C5N(Cc2cn(CCCCCCN5C[C@H](O)[C@@H](O)[C@H](O)[C@H]5CO)nn2)C(=O)N1Cc1cn(CCCCCCN2C[C@H](O)[C@@H](O)[C@H](O)[C@H]2CO)nn1)C1C4N(Cc2cn(CCCCCCN4C[C@H](O)[C@@H](O)[C@H](O)[C@H]4CO)nn2)C(=O)N1Cc1cn(CCCCCCN2C[C@H](O)[C@@H](O)[C@H](O)[C@H]2CO)nn1)C1C3N(Cc2cn(CCCCCCN3C[C@H](O)[C@@H](O)[C@H](O)[C@H]3CO)nn2)C(=O)N1Cc1cn(CCCCCCN2C[C@H](O)[C@@H](O)[C@H](O)[C@H]2CO)nn1.[Br-] (some centres unmarked) [Compound 8, Br^−@(DNJ-C6)12BU[6].TBA^+]	mixed	85.6 µM		3.8	191 ± 37 µM
